# Test results reported in patent US12071424B2, “IRE1 small molecule inhibitors” (Cornell University, priority 2017, dated 2024).
# What was measured:
# 293T cells = assay: Growth assay (cytotoxicity); type: cell-based, human; conditions: Homo sapiens, HEK-293T, Formic Acid Salt (37: HCl Salt)
# Description: A growth assay was performed to evaluate the compounds disclosed herein for cytotoxicity. Briefly, 5,000,000 293T cells were resuspended in 18 mL of cDMEM for a final concentration of […]. […] In a separate 96 well dilution plate, 199 uL cDMEM and 1 uL of DMSO or any one of the compounds disclosed herein (shown as Test Compound 1, 2, 3, 4, 5, or 6 below) were added to wells A4, A8, C4, C8, E4, E8, G4, and G8, 133.3 uL cDMEM was added to wells 1, 2, 3, 5, 6, and 7 in rows A, C, E and G of the dilution plate. Compounds were serially diluted leftwards in threefold dilutions (66.7 uL into 133.3 uL cDMEM). 20 uL of each dilution was transferred in duplicate (duplicates in vertical paired wells) to the cells plated in the 96-well plate shown in Table 5, to the total concentrations shown below. 200 uL cDMEM was addled to media wells (wells G5-H8). The plate was then placed in a humidified chamber for a […], and then photographed (media was more yellow in wells with potent cell growth). Absorbance was then measured at ˜[…] (lower for more acidic media) and ˜450 nM (higher for more acidic media).
# IRE1a [1] = assay: IRE1a Endoribonuclease Nanoluciferase Assay (XBP1 luciferase reporter in 293T cells); type: cell-based, human; conditions: Homo sapiens, HEK-293T, ER stressor, tested as Formic Acid Salt (37: HCl Salt)
# In short: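 293T cells transiently transfected with a PGK-Luc2-P2A-XBP1u-Nanoluciferase-Pest reporter, replated after 6 h, then treated next day with ER stressors ± inhibitors. After lysis, firefly luminescence then nanoluciferase luminescence read sequentially (1000 ms integration each).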
# IRE1a [2] = biological target: T1, IRE1a (Homo sapiens, UniProt O75460); assay: In vitro FRET assay (IRE1a cleavage of XBP1 RNA probe); type: biochemical; conditions: 2 nM SignalChem IRE1a, tested as Formic Acid Salt (37: HCl Salt)
# T1 construct: purchased SignalChem
# In short: Human
# hERG channel = biological target: T2, hERG channel (Homo sapiens, UniProt Q12809); assay: hERG potassium ion channel automated planar clamp (QPatch) in stable CHO cell line; type: cell-based; conditions: Formic Acid Salt (37: HCl Salt), read-out: hERG channel blockade Mean IC50
# T2 construct: expressed in transfected cells
# Description: Blockade of the cardiac ion channel coded by the hERG gene can lead to cardiac arrhythmia. […] To determine the viability of the compounds disclosed herein as pharmacological agents that would not affect the hERG channel blockade, a standard automated planar clamp method was employed to determine the IC50 for various test compounds on their inhibition of the channel. An electrophysiological assay was prepared to measure the electric current passing through the hERG channel expressed in a stable CHO cell line by applying the planar clamp method. This assay was performed using the automated QPatch platform (Sophion, Denmark) which allows fast and accurate electrophysiological characterization of the hERG ion channel and the determination of IC50 values for the test compounds, as shown in Table 9.
# T1 sequence (O75460 19-977): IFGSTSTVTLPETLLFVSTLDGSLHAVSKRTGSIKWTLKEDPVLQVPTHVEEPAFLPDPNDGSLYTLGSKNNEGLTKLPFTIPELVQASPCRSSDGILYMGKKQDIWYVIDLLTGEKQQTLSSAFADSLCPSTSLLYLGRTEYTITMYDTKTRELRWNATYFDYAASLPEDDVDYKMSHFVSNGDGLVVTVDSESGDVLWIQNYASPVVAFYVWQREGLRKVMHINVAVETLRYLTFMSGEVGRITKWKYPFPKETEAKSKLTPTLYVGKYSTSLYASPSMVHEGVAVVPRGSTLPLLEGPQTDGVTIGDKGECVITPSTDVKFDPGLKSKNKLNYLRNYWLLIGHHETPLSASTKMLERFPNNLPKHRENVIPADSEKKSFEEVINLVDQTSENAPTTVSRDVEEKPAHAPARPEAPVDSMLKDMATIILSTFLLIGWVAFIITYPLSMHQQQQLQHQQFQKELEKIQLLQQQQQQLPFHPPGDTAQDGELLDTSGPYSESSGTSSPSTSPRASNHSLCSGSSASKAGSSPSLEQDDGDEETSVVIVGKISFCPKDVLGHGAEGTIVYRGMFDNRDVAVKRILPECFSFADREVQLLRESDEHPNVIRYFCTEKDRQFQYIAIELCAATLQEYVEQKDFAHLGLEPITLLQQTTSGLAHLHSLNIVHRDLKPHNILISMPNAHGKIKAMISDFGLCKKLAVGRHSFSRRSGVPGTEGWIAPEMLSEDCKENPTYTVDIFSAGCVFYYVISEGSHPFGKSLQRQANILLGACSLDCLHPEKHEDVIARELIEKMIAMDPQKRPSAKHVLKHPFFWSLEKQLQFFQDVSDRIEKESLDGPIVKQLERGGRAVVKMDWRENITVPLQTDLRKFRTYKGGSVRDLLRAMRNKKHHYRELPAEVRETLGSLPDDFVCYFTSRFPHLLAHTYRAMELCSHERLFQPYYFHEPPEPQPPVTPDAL
# T2 sequence (Q12809 whole entry): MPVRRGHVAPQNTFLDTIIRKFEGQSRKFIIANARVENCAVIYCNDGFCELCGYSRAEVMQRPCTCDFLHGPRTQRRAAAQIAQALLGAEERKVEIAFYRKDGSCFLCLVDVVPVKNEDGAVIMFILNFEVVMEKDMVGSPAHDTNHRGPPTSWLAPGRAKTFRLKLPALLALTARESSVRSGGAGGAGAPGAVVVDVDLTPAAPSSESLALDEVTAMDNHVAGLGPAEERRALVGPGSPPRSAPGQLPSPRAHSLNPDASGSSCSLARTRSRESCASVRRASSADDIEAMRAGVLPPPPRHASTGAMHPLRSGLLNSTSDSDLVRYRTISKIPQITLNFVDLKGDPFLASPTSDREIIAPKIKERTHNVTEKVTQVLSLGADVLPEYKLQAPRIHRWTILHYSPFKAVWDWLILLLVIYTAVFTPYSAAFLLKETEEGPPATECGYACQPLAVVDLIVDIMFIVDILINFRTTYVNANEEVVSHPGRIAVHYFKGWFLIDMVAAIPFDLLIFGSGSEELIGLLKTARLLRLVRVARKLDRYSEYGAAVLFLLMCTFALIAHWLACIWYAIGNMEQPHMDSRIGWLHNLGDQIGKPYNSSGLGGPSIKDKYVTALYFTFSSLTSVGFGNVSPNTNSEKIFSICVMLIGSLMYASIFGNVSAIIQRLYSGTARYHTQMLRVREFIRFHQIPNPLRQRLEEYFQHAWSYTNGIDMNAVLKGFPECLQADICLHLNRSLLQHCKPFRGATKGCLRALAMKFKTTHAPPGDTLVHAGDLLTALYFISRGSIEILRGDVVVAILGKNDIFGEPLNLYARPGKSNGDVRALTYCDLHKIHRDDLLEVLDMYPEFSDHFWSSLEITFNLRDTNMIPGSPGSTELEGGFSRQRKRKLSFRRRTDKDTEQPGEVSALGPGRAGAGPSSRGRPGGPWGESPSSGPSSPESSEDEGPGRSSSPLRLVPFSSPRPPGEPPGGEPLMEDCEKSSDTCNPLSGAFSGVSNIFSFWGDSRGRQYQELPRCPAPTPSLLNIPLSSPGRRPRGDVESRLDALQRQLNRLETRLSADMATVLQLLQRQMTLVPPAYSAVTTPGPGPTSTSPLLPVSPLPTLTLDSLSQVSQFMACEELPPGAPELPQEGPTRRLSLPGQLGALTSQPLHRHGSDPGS
EC50 (IRE1a [1]) [nM],IC50 (IRE1a [2]) [nM],Structure (SMILES),viability at 0.185 µM (293T cells) [%],viability at 0.5556 µM (293T cells) [%],viability at 1.667 µM (293T cells) [%],viability at 5 µM (293T cells) [%],IC50 (hERG channel) [nM]
5 to 50,≤ 5,"CCc1cc(-c2nnc(NS(=O)(=O)c3ccccc3Cl)cc2OC)cc2cnc(N[C@H]3CC[C@H](N)CC3)nc12 [Compound 65, N-(6-(2-(((1r,4r)-4-aminocyclohexyl)amino)-8-ethylquinazolin-6-yl)-5-methoxypyridazin-3-yl)-2-chlorobenzene-sulfonamide]",75 to 100,75 to 100,75 to 100,50 to 75,–
100 to 10000,≤ 5,"CCc1cc(-c2cc(NS(=O)(=O)c3ccccc3Cl)n[nH]2)cc2cnc(N[C@H]3CC[C@H](N)CC3)nc12 [Compound 29, N-(5-(2-(((1r,4r)-4-aminocyclohexyl)amino)-8-ethylquinazolin-6-yl)-1H-pyrazol-3-yl)-2-chlorobenzene-sulfonamide]",75 to 100,75 to 100,75 to 100,75 to 100,–
≤ 5,≤ 5,"CCc1cc(-c2ccc(NS(=O)(=O)c3ccccc3Cl)nc2)cc2cnc(N[C@H]3CC[C@H](N)CC3)nc12 [Compound 27, N-(5-(2-(((1r,4)-4-aminocyclohexyl)amino)-8-ethylquinazolin-6-yl)pyridin-2-yl)-2-chlorobenzene-sulfonamide]",75 to 100,75 to 100,50 to 75,25 to 50,–
5 to 50,≤ 5,"CCc1cc(-c2nnc(NS(=O)(=O)c3ccccc3Cl)cc2C)cc2cnc(N[C@H]3CC[C@H](N)CC3)nc12 [Compound 67, N-(6-(2-(((1r,4r)-4-aminocyclohexyl)amino)-8-ethylquinazolin-6-yl)-5-methylpyridazin-3-yl)-2-chlorobenzene-sulfonamide]",75 to 100,75 to 100,50 to 75,50 to 75,–
≤ 5,≤ 5,"CCc1cc(-c2ccc(NS(=O)(=O)c3ccccc3Cl)c(F)c2C)cc2cnc(N[C@H]3CC[C@H](N)CC3)nc12 [Compound 71, N-(4-(2-(((1r,4r)-4-aminocyclohexyl)amino)-8-ethylquinazolin-6-yl)-2-fluoro-3-methylphenyl)-2-chlorobenzene-sulfonamide]",75 to 100,75 to 100,50 to 75,25 to 50,–
≤ 5,≤ 5,"CCc1cc(-c2cnc(NS(=O)(=O)c3ccccc3Cl)cn2)cc2cnc(N[C@H]3CC[C@H](N)CC3)nc12 [Compound 25, N-(S-(2-(((1r,4r)-4-aminocyclohexyl)amino)-8-ethylquinazolin-6-yl)pyrazin-2-yl)-2-chlorobenzene-sulfonamide]",75 to 100,75 to 100,75 to 100,75 to 100,–
≤ 5,≤ 5,"CCc1cc(-c2ccc(NS(=O)(=O)c3ccccc3Cl)c(F)c2)cc2cnc(N[C@H]3CC[C@H](N)CC3)nc12 [Compound 24, N-(4-(2-(((1r,4r)-4-aminocyclohexyl)amino)-8-ethylquinazolin-6-yl)-2-fluorophenyl)-2-chlorobenzene-sulfonamide]",75 to 100,75 to 100,50 to 75,50 to 75,1000 to 10000
≤ 5,≤ 5,"CCc1cc(-c2ccc(NS(=O)(=O)c3ccccc3Cl)cc2F)cc2cnc(N[C@H]3CC[C@H](N)CC3)nc12 [Compound 35, N-(4-(2-(((1r,4r)-4-aminocyclohexyl)amino)-8-ethylquinazolin-6-yl)-3-fluorophenyl)-2-chlorobenzene-sulfonamide]",75 to 100,75 to 100,50 to 75,25 to 50,–
≤ 5,≤ 5,"CCc1cc(-c2cnc(NS(=O)(=O)c3ccccc3Cl)c(F)c2)cc2cnc(N[C@H]3CC[C@H](N)CC3)nc12 [Compound 55, N-(5-(2-(((1r,4r)-4-aminocyclohexyl)amino)-8-ethylquinazolin-6-yl)-3-fluoropyridin-2-yl)-2-chlorobenzene-sulfonamide]",75 to 100,75 to 100,75 to 100,75 to 100,–
5 to 50,≤ 5,"CCc1cc(NS(=O)(=O)c2ccccc2Cl)ccc1-c1cc(CC)c2nc(N[C@H]3CC[C@H](N)CC3)ncc2c1 [Compound 34, N-(4-(2-(((1r,4r)-4-aminocyclohexyl)amino)-8-ethylquinazolin-6-yl)-3-ethylphenyl)-2-chlorobenzene-sulfonamide]",75 to 100,75 to 100,75 to 100,≤ 25,–
≤ 5,≤ 5,"CCc1cc(-c2ccc(NS(=O)(=O)c3ccccc3Cl)c(F)c2)cc2cnc(N[C@H]3CC[C@H](N(C)C)CC3)nc12 [Compound 69, 2-chloro-N-(4-(2-(((1r,4r)-4-(dimethylamino)cyclohexyl)amino)-8-ethylquinazolin-6-yl)-2-fluorophenyl) benzene-sulfonamide]",–,75 to 100,50 to 75,50 to 75,10000 to 50000
≤ 5,≤ 5,CCc1cc(-c2ccc(NS(=O)(=O)c3ccccc3Cl)cn2)cc2cnc(N[C@H]3CC[C@H](N)CC3)nc12 [Compound 28],75 to 100,75 to 100,50 to 75,25 to 50,–
≤ 5,≤ 5,CCc1cc(-c2cnc(NS(=O)(=O)c3ccccc3Cl)nc2C)cc2cnc(N[C@H]3CC[C@H](N)CC3)nc12 [Compound 23],75 to 100,50 to 75,50 to 75,75 to 100,–
≤ 5,≤ 5,CCc1cc(-c2ncc(NS(=O)(=O)c3ccccc3Cl)cc2F)cc2cnc(N[C@H]3CC[C@H](N)CC3)nc12 [Compound 52],75 to 100,75 to 100,75 to 100,50 to 75,–
≤ 5,≤ 5,"CCc1cc(-c2ccc(NS(=O)(=O)c3ccccc3Cl)nn2)cc2cnc(N[C@H]3CC[C@H](N)CC3)nc12 [Compound 32, N-(6-(2-(((1r,4r)-4-aminocyclohexyl)amino)-8-ethylquinazolin-6-yl)pyridazin-3-yl)-2-chlorobenzene-sulfonamide]",75 to 100,75 to 100,50 to 75,25 to 50,–
≤ 5,≤ 5,CCc1cc(-c2ncc(NS(=O)(=O)c3ccccc3Cl)cn2)cc2cnc(N[C@H]3CC[C@H](N)CC3)nc12 [Compound 33],75 to 100,75 to 100,75 to 100,50 to 75,–
≤ 5,≤ 5,"COc1nc(NS(=O)(=O)c2ccccc2Cl)ccc1-c1cc(F)c2nc(N[C@H]3CC[C@H](N(C)C)CC3)ncc2c1 [Compound 148, 2-chloro-N-(5-(2-(((1r,4r)-4-(dimethylamino)cyclohexyl)amino)-8-fluoroquinazolin-6-yl)-6-methoxypyridin-2-yl)benzenesulfonamide]",–,–,–,–,–
≤ 5,≤ 5,"CCc1cc(-c2cnc(NS(=O)(=O)c3ccccc3Cl)nc2OC)cc2cnc(N[C@H]3CC[C@H](N)CC3)nc12 [Compound 46, N-(5-(2-(((1r,4r)-4-aminocyclohexyl)amino)-8-ethylquinazolin-6-yl)-4-methoxypyrimidin-2-yl)-2-chlorobenzene-sulfonamide]",75 to 100,75 to 100,75 to 100,75 to 100,–
5 to 50,≤ 5,"N[C@H]1CC[C@H](Nc2ncc3cc(-c4cnc(NS(=O)(=O)c5ccccc5Cl)c(F)c4)ccc3n2)CC1 [Compound 54, N-(5-(2-(((1r,4r)-4-aminocyclohexyl)amino)quinazolin-6-yl)-3-fluoropyridin-2-yl)-2-chlorobenzene-sulfonamide]",–,–,–,–,–
